# Measured values from patent US10208066B2, “Imidazopyridazine compounds and their use” (HUTCHISON MEDIPHARMA LIMITED, priority 2014, dated 2019).
# Like-named read-outs stand apart in the source and are kept apart here.
# What was measured:
# Assay in all cases: Transcreener KINASE Assay, fluorescent determination of PI3K enzyme activity;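 for PI3K-β IH % (inhibition rate): recombinant PI3K enzyme reaction, 80 min at room temperature, ADP formed detected by far-red competitive fluorescence polarization immunoassay, inhibition relative to ADP in 2% DMSO control wells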;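 for PI3K-γ IH % (inhibition rate): ADP produced by p110γ kinase reaction, 80 min at room temperature, detected by far-red fluorescence polarization immunoassay, inhibition relative to 2% DMSO control wells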;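 for PI3K-δ IH % (inhibition rate): ADP formed by the kinase detected via far-red competitive fluorescence polarization immunoassay after 80 min room-temperature reaction, inhibition relative to 2% DMSO wells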
# Format in all cases: biochemical
# [1] = molecular target: PI3K-δ (p110δ/p85α) (Homo sapiens (Human), UniProt O00329); conditions: for inhibition at 1 µM: read-out: PI3K-δ IH % (inhibition rate);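 for all read-outs here: ADP formed by the kinase detected via far-red competitive fluorescence polarization immunoassay after 80 min room-temperature reaction, inhibition relative to 2% DMSO wells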
# Method: (§1) It is a universal, homogenous, high throughput screening (HTS) technology using a far-red, competitive fluorescence polarization immunoassay based on the detection of ADP to monitor the activity of enzymes that catalyze group transfer reactions. […] The reaction mixture was added into desired wells of a 96-well plate. The plate was sealed and incubated for 80 min at room temperature. • 2) Next, 25 uL ADP detection mix was added into each well. The plate was sealed again and incubated for 60 min at room temperature. Then fluorescence polarization was measured by Tecan Infinite F500 Reader.
# (§2) Data was analyzed and IC50 values were generated using the add-in software for Microsoft Excel, Xlfit™ (version 5.3).
# (§3) Inhibition rates were calculated as follow: IH %=(ADP amount under 2% DMSO well−ADP amount under test compound well)/ADP amount under 2% DMSO well×100%.
# [2] = molecular target: PI3K-γ (p110γ) (Homo sapiens (Human), UniProt P48736); conditions: for inhibition at 1 µM: read-out: PI3K-γ IH % (inhibition rate);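 for all read-outs here: ADP produced by p110γ kinase reaction, 80 min at room temperature, detected by far-red fluorescence polarization immunoassay, inhibition relative to 2% DMSO control wells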
# Method: as §1, §2, §3
# [3] = molecular target: PI3K-β (Homo sapiens, UniProt P42338); conditions: for inhibition at 1 µM: read-out: PI3K-β IH % (inhibition rate); for inhibition at 1 µM / PI3K-β IH % (inhibition rate): at 1 μM;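 for all read-outs here: recombinant PI3K enzyme reaction, 80 min at room temperature, ADP formed detected by far-red competitive fluorescence polarization immunoassay, inhibition relative to ADP in 2% DMSO control wells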
# PI3K-β, sequence (P42338 whole entry, looked up): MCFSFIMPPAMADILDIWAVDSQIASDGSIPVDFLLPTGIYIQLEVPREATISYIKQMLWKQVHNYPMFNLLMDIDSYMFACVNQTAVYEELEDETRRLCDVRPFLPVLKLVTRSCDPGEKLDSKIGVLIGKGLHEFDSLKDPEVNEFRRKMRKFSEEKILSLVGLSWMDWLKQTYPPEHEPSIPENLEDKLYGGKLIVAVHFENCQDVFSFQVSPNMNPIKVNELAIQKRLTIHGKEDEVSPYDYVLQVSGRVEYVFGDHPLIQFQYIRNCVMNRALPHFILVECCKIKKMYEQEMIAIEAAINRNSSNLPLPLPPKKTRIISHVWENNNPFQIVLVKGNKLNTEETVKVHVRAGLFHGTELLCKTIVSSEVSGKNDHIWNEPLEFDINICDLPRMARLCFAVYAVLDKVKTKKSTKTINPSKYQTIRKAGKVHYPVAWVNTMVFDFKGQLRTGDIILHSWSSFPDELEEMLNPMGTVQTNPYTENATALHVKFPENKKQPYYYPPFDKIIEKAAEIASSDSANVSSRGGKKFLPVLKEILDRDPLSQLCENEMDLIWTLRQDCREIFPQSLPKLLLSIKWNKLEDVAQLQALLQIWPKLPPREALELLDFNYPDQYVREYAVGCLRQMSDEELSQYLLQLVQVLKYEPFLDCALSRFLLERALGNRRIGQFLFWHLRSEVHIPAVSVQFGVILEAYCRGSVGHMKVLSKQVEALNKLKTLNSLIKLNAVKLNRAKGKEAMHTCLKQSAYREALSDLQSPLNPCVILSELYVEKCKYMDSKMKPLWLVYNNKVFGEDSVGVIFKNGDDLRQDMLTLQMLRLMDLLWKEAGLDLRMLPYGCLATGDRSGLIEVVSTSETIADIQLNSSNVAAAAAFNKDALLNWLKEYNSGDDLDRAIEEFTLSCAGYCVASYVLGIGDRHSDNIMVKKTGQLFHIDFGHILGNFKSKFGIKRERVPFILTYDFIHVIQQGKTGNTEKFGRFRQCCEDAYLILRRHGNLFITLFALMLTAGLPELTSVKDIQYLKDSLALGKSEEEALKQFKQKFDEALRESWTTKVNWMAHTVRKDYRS
# Method: as §1, §2, §3
# PI3K-γ (p110γ), sequence (P48736 whole entry, species assumed): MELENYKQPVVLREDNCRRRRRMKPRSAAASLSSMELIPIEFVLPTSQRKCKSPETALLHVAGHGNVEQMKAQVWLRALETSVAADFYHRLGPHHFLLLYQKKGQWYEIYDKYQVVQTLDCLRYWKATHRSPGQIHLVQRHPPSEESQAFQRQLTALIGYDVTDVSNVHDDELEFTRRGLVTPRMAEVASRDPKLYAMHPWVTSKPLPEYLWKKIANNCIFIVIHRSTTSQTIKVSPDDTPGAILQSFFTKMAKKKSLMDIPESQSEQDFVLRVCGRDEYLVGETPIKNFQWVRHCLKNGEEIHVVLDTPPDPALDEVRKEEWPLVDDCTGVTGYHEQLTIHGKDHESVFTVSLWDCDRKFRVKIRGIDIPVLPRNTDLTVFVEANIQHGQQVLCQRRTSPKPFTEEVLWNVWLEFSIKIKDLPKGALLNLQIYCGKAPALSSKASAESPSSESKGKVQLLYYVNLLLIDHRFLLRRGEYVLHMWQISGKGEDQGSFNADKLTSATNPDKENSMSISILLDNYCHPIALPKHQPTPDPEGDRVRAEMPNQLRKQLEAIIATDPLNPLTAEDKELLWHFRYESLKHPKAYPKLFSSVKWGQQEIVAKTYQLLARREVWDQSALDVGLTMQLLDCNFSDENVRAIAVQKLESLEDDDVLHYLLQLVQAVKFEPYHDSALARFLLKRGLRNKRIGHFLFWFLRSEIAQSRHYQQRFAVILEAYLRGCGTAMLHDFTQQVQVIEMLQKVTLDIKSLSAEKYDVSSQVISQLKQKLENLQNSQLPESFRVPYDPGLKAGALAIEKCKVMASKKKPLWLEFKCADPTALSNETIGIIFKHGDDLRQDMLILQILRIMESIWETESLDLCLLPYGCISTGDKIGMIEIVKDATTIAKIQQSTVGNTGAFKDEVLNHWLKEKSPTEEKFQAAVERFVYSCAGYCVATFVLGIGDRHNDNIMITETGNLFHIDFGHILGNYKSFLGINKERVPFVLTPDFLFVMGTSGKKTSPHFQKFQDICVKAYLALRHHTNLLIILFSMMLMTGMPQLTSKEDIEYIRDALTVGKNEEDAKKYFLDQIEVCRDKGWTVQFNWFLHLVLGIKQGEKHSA
# PI3K-δ (p110δ/p85α), sequence (O00329 whole entry, species assumed): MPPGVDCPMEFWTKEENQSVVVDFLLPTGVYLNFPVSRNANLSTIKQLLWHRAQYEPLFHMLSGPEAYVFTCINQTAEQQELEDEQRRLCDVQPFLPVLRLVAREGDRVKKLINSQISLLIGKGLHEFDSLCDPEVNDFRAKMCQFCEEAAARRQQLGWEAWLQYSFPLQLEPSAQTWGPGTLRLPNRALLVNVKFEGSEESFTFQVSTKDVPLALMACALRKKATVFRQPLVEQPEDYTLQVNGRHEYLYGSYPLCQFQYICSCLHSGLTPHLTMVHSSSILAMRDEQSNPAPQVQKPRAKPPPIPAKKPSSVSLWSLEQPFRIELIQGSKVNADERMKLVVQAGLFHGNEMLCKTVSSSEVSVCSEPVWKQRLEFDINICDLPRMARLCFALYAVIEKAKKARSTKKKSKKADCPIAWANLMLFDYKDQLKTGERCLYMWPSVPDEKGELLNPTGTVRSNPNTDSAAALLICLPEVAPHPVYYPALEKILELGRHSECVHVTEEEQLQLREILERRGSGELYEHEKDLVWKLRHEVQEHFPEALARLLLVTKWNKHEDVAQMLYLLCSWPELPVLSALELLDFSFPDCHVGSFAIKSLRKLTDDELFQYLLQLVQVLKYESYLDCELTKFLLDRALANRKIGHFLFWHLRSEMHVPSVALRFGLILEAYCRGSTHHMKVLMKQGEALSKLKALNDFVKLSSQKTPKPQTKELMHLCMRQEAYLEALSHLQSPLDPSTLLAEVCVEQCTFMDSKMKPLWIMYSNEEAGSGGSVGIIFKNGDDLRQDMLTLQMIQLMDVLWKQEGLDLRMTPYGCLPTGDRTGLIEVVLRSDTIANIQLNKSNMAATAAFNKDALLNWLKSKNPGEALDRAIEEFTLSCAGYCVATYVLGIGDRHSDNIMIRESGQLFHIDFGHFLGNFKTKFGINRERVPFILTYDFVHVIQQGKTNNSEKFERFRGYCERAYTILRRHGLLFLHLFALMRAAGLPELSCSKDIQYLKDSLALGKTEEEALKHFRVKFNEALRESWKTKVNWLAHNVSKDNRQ
# PI3K-δ (p110δ/p85α), sequence (P27986 whole entry partner, species assumed): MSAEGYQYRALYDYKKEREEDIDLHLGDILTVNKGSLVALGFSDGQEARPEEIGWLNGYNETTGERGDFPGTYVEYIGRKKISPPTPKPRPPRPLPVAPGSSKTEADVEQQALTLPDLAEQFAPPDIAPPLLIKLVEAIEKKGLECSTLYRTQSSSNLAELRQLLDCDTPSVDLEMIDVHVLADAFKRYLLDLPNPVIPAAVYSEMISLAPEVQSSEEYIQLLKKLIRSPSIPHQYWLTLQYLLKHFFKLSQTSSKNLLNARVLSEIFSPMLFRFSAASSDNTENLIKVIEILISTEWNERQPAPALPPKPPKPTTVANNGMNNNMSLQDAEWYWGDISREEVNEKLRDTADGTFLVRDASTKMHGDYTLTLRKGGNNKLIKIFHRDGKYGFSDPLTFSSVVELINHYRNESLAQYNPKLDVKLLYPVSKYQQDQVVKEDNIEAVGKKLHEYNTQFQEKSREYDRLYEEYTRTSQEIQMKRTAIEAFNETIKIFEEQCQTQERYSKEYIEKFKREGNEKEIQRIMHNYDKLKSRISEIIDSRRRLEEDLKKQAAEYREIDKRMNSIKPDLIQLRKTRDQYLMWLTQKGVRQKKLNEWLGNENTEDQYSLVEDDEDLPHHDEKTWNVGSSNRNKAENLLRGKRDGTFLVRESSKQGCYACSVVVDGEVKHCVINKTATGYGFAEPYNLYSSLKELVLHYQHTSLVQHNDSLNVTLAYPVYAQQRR
inhibition at 1 µM ([2]; at 1 μM) [%],inhibition at 1 µM [3] [%],SMILES,IC50 [1] [nM],further results
-14.3,54.9,C[C@H](Nc1ncnc(N)c1C#N)c1cc2ncc(Cl)n2nc1-c1ccc2ccn(C)c2c1 [Compound 76],–,inhibition at 1 µM [1]: 48.9%
–,–,"C[C@H](Nc1ncnc(N)c1C#N)c1cc2ncc(Cl)n2nc1-c1ccccc1O [Compound 69, (S)-4-amino-6-((1-(3-chloro-6-(2-hydroxyphenyl)imidazo[1,2-b]pyridazin-7-yl)ethyl)amino)pyrimidine-5-carbonitrile]",1,–
31.7,-7.1,C[C@@H](Nc1ncnc(N)c1C#N)c1cc2ncc(Cl)n2nc1-c1ccc2scnc2c1 [Compound 75],–,inhibition at 1 µM [1]: 1%
1,9,C[C@H](Nc1ncnc(N)c1C(=O)N(C)C)c1cc2ncc(Cl)n2nc1-c1ccccc1 [Compound 56],–,inhibition at 1 µM [1]: 21%
–,–,"C[C@H](Nc1ncnc(N)c1C#N)c1cc2ncc(Cl)n2nc1-c1cccc(C(C)(C)O)c1 (single isomer, unassigned) [Compound 79, (chiral)-4-amino-6-((1-(3-chloro-6-(3-(2-hydroxypropan-2-yl)phenyl)imidazo[1,2-b]pyridazin-7-yl)ethyl)amino)pyrimidine-5-carbonitrile]",–,PI3K-γ IH % (inhibition rate) ([2]; at 1 μM): 56.2%; PI3K-β IH % (inhibition rate) [3]: 43.8%
–,37.4,C[C@H](Nc1ncnc(N)c1C#N)c1cc2ncc(Cl)n2nc1-c1ccc2c(c1)OCCO2 [Compound 70],–,–
–,–,C[C@H](Nc1ncnc(N)c1C#N)c1cc2ncc(Cl)n2nc1-c1ccsc1 [Compound 60],1,IC50 [2]: 48 nM; IC50 [3]: 34 nM
20.2,20.5,Cc1cn2nc(-c3ccccc3)c([C@H](C)Nc3ncnc(N)c3C#N)cc2n1 [Compound 58],138,–
–,–,C[C@H](Nc1ncnc(N)c1C#N)c1cc2ncc(Cl)n2nc1-c1ccc(O)cc1 [Compound 49],1,IC50 [2]: 146 nM; IC50 [3]: 1 nM
–,–,"CC(Nc1ncnc2[nH]cc(C#N)c12)c1cc2ncc(Cl)n2nc1-c1ccccc1 (single isomer, unassigned) [Compound 9]",2,IC50 [2]: 46 nM; IC50 [3]: 158 nM
36,18.8,CC[C@@H](Nc1ncnc2[nH]cnc12)c1cc2ncc(Cl)n2nc1-c1cccc(F)c1 [Compound 44],283,–
6.9,–,"C[C@@H](Nc1ncnc(N)c1C#N)c1cc2ncc(Cl)n2nc1-c1ccccc1 [Compound 3, (R)-4-amino-6-((1-(3-chloro-6-phenylimidazo[1,2-b]pyridazin-7-yl)ethyl)amino)pyrimidine-5-carbonitrile]",–,–
5.5,-14.1,COc1cc(-c2c(N)ncnc2N[C@@H](C)c2cc3ncc(Cl)n3nc2-c2ccccc2)ccn1 [Compound 50],–,inhibition at 1 µM [1]: 68.9%
62.8,60.8,C[C@H](Nc1ncnc(N)c1C#N)c1cc2ncc(Cl)n2nc1-c1ccncc1 [Compound 73],82,–
–,–,C[C@H](Nc1ncnc(N)c1C#N)c1cc2ncc(Cl)n2nc1-c1cnn(C)c1 [Compound 72],4,IC50 [2]: 513 nM; IC50 [3]: 89 nM
28.1,-4.4,COc1ccc(-c2c(N)ncnc2N[C@@H](C)c2cc3ncc(Cl)n3nc2-c2ccccc2)cn1 [Compound 39],73,–
–,–,"Cc1nnc(-c2c(N)ncnc2N[C@@H](C)c2cc3ncc(Cl)n3nc2-c2ccccc2)o1 [Compound 81, (S)—N^4-(1-(3-chloro-6-phenylimidazo[1,2-b]pyridazin-7-yl)ethyl)-5-(5-methyl-1,3,4-oxadiazol-2-yl)pyrimidine-4,6-diamine]",2,IC50 [2]: 98 nM
18.8,11.1,CCC(Nc1ncnc(N)c1C#N)c1cc2ncc(Cl)n2nc1-c1ccccn1 (stereo not drawn) [Compound 28],–,inhibition at 1 µM [1]: 39.8%
–,–,C[C@H](Nc1ncnc(N)c1C#N)c1cc2ncc(Cl)n2nc1-c1cccc(O)c1 [Compound 54],2,IC50 [2]: 226 nM; IC50 [3]: 9 nM
55.2,32.2,CC[C@H](Nc1ncnc2[nH]cnc12)c1cc2ncc(Cl)n2nc1-c1cccc(F)c1 [Compound 47],18,–
–,–,C[C@H](Nc1ncnc(N)c1C#N)c1cc2ncc(Cl)n2nc1-c1ccccc1F [Compound 12],2,IC50 [2]: 550 nM; IC50 [3]: 80 nM
-4.7,8.5,"C[C@H](Nc1nc(O)nc(N)c1C#N)c1cc2ncc(Cl)n2nc1-c1ccccc1 [Compound 55, (S)-4-amino-6-((1-(3-chloro-6-phenylimidazo[1,2-b]pyridazin-7-yl)ethyl)amino)-2-hydroxypyrimidine-5-carbonitrile]",–,inhibition at 1 µM [1]: 60.3%
-2.3,-2.7,"C[C@@H](Nc1ncnc(N)c1C#N)c1cc2ncc(Cl)n2nc1-c1ccccn1 [Compound 7, (R)-4-amino-6-((1-(3-chloro-6-(pyridin-2-yl)imidazo[1,2-b]pyridazin-7-yl)ethyl)amino)pyrimidine-5-carbonitrile]",–,inhibition at 1 µM [1]: 12.5%
32.6,35.2,C[C@H](Nc1ncnc(N)c1C#N)c1cc2ncc(Cl)n2nc1-c1ccc2ccccc2c1 [Compound 71],129,–
-19.3,3.7,C[C@H](Nc1nc(N)ncc1C#N)c1cc2ncc(Cl)n2nc1-c1ccccc1 [Compound 34],–,inhibition at 1 µM [1]: 8.3%
54.3,-2.2,C[C@H](Nc1ncnc(N)c1-c1ccc(O)c(F)c1)c1cc2ncc(Cl)n2nc1-c1ccccc1 [Compound 38],66,–
4.1,-10.7,"CC[C@@H](Nc1ncnc(N)c1C#N)c1cc2ncc(Cl)n2nc1-c1ccccc1 [Compound 5, (R)-4-amino-6-((1-(3-chloro-6-phenylimidazo[1,2-b]pyridazin-7-yl)propyl)amino)pyrimidine-5-carbonitrile]",–,inhibition at 1 µM [1]: 47.3%
27.5,-0.4,"C[C@H](Nc1ncnc(N)c1-c1cccc(F)c1)c1cc2ncc(Cl)n2nc1-c1ccccc1 [Compound 37, (S)—N^4-(1-(3-chloro-6-phenylimidazo[1,2-b]pyridazin-7-yl)ethyl)-5-(3-fluorophenyl)pyrimidine-4,6-diamine]",288,–
8,–,"CCC(Nc1ncnc2[nH]cnc12)c1cc2ncc(Cl)n2nc1-c1ccccc1F (single isomer, unassigned) [Compound 26]",–,PI3K-β IH % (inhibition rate) [3]: −7.5%

SMILES,inhibition at 1 µM ([2]; at 1 μM) [%],inhibition at 1 µM [3] [%],IC50 [1] [nM],further results
"CNc1ncnc(N[C@@H](C)c2cc3ncc(Cl)n3nc2-c2ccccc2)c1C#N [Compound 33, (S)-4-((1-(3-chloro-6-phenylimidazo[1,2-b]pyridazin-7-yl)ethyl)amino)-6-(methylamino)pyrimidine-5-carbonitrile]",-6.9,2.2,288,–
C[C@H](Nc1ncnc(N)c1C#N)c1cc2ncc(Cl)n2nc1-c1ccc(Cl)c(F)c1 [Compound 64],–,44.1,48,IC50 [2]: > 333 nM
CCC(Nc1ncnc2[nH]cnc12)c1cc2ncc(Cl)n2nc1-c1ccccc1 (stereo not drawn) [Compound 14],22.5,–,–,inhibition at 1 µM [1]: 51%; PI3K-β IH % (inhibition rate) [3]: 3.2%
"C[C@@H](c1cc2ncc(Cl)n2nc1-c1ccccc1)N(C)c1ncnc(N)c1C#N [Compound 42, (S)-4-amino-6-((1-(3-chloro-6-phenylimidazo[1,2-b]pyridazin-7-yl)ethyl)(methyl)amino)pyrimidine-5-carbonitrile]",18.2,7.4,339,–
"CC(Nc1ncnc2[nH]cnc12)c1cc2ncc(Cl)n2nc1-c1ccccc1 (single isomer, unassigned) [Compound 11]",–,55.7,3,IC50 [2]: 94 nM
"CC[C@@H](Nc1ncnc(N)c1C#N)c1cc2ncc(Cl)n2nc1-c1cccc(F)c1 [Compound 43, (R)-4-amino-6-((1-(3-chloro-6-(3-fluorophenyl)imidazo[1,2-b]pyridazin-7-yl)propyl)amino)pyrimidine-5-carbonitrile]",27.2,23.6,132,–
"C[C@H](Nc1nc[n+]([O-])c(N)c1C#N)c1cc2ncc(Cl)n2nc1-c1ccccc1 [Compound 51, (S)-6-amino-4-((1-(3-chloro-6-phenylimidazo[1,2-b]pyridazin-7-yl)ethyl)amino)-5-cyanopyrimidine 1-oxide]",–,-15.5,–,inhibition at 1 µM [2]: 36.7%
C[C@H](Nc1ncnc(N)c1C#N)c1cc2ncc(Cl)n2nc1-c1ccc(F)c(F)c1 [Compound 63],–,48.1,6,IC50 [2]: 105 nM
"Cc1noc(-c2c(N)ncnc2N[C@@H](C)c2cc3ncc(Cl)n3nc2-c2ccccc2)n1 [Compound 82, (S)—N^4-(1-(3-chloro-6-phenylimidazo[1,2-b]pyridazin-7-yl)ethyl)-5-(3-methyl-1,2,4-oxadiazol-5-yl)pyrimidine-4,6-diamine]",–,55.2,13,IC50 [2]: 203 nM
"CC(Nc1ncnc(N)c1C#N)c1cc2nccn2nc1-c1ccccc1 (stereo not drawn) [Compound 1, 4-amino-6-((1-(6-phenylimidazo[1,2-b]pyridazin-7-yl)ethyl)amino)pyrimidine-5-carbonitrile]",–,28.1,28,inhibition at 1 µM [2]: 16.1%
C[C@H](Nc1ncnc(N)c1C#N)c1cc2ncc(F)n2nc1-c1ccccc1 [Compound 78],–,50.1,–,–
